Measured values: US6875760B2 (Novo Nordisk A/S, priority 1999, dated 2005)

target: T1, human glucagon receptor (Homo sapiens, UniProt P47871); experiment: Glucagon Binding Assay (III); settings: BHK cell membranes, WGA SPA beads, 125I-glucagon; read-out: Glu Bd Assay (III) IC50
T1 construct: expressed in transfected cells; host or cells: BHK (baby hamster kidney) cells
Experimental: BHK (baby hamster kidney cell line) cells were transfected with the human glucagon receptor and a membrane preparation of the cells was prepared.
All steps in the membrane preparation were kept on ice or performed at 4° C. BHK cells were harvested and centrifuged. […] The pellet was resuspended in homogenisation buffer, homogenised 2×10 sec (Polytron) and additional homogenisation buffer was added. […] (Polytron).
The glucagon binding assay was carried out in opti plates (Polystyrene Microplates, Packard). […] Finally 50 μL WGA beads containing 1 mg beads were transferred to the well. The assay was incubated for 4 hours on a shaker and then settled for 8-48 hours. The opti plates were counted in a Topcounter. Non-specific binding was determined with 500 nM of glucagon.

T1 sequence (P47871 26-477): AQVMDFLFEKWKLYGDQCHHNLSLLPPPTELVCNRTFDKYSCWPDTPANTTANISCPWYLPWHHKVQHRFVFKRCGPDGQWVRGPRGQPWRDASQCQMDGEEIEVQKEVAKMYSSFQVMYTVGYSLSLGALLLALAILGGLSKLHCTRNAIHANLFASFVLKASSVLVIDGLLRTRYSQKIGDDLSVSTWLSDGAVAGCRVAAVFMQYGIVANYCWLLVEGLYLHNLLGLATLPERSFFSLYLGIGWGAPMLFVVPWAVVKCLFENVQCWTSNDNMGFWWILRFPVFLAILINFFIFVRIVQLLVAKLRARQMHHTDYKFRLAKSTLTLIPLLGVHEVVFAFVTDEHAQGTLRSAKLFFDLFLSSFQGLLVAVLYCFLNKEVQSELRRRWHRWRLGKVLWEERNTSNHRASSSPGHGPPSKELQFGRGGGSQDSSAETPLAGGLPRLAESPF

IC50 [nM]	Compound
256	CN(C)C(=O)c1cccc(NC(=O)N(Cc2ccc(C(=O)Nc3nn[nH]n3)cc2)c2ccc(C3CCCCC3)cc2)c1 [Example 463, N,N-Dimethyl-3-{3-(4-cyclohexylphenyl)-3-[4-(2H-tetrazol-5-ylcarbamoyl)benzyl]ureido}benzamide]
764	CN(C)C(=O)c1cccc(NC(=O)N(Cc2ccc(C(=O)Nc3nn[nH]n3)cc2)c2ccc(C(C)(C)C)cc2)c1 [Example 461, N,N-Dimethyl-3-{3-(4-tert-butylphenyl)-3-[4-(2H-tetrazol-5-ylcarbamoyl)benzyl]ureido}benzamide]
1410	CCS(=O)(=O)c1cccc(NC(=O)N(Cc2ccc(C(=O)Nc3nn[nH]n3)cc2)c2ccc(OC(F)(F)F)cc2)c1 [Example 452, 4-[3-(3-Ethylsulfonylphenyl)-1-(4-trifluoromethoxyphenyl)ureidomethyl]-N-(2H-tetrazol-5-yl)benzamide]
17	O=C(O)CCNC(=O)c1ccc(CN(C(=O)Nc2cc(Br)cc(C(F)(F)F)c2)[C@H]2CC[C@H](C3CCCCC3)CC2)cc1 [Example 393, 3-{4-[1-(trans-4-Cyclohexylcyclohexyl)-3-(3-bromo-5-trifluoromethylphenyl)ureidomethyl]benzoylamino}propionic acid]
200	O=C(O)CCNC(=O)c1ccc(CN(C(=O)Nc2ccc(OC(F)(F)F)cc2)C2CCC3CCCCC3C2)cc1 (stereo not shown) [Example 79, 3-{4-[1-(Decahydronaphthalen-2-yl)-3-(4-trifluoromethoxyphenyl)ureidomethyl]benzoylamino}propionic acid]
83	CC(=O)c1ccc(NC(=O)N(Cc2ccc(C(=O)NCCC(=O)O)cc2)C2CCC(C(C)(C)C)CC2)cc1 (stereo not shown) [Example 60, 3-{4-[3-(4-Acetylphenyl)-1-(4-tert-butylcyclohexyl)ureidomethyl]benzoylamino}propionic acid]
352	CC(C)(C)[C@H]1CC[C@H](N(Cc2ccc(C(=O)NCCC(=O)O)cc2)C(=O)Nc2ccc(Cl)cc2Cl)CC1 [Example 35, 3-{4-[1-(4-trans-tert-Butylcyclohexyl)-3-(2,4-dichlorophenyl)ureidomethyl]benzoylamino}propionic acid]
117	CCCCC(CC)CN(Cc1ccc(C(=O)NCCC(=O)O)cc1)C(=O)Nc1ccc(CC)cc1 (stereo not shown) [Example 42, 3-{4-[1-(2-Ethylhexyl)-3-(4-ethylphenyl)ureidomethyl]benzoylamino}propionic acid]
1070	O=C(O)CCNC(=O)c1ccc(CN(C(=O)c2cc(F)cc(C(F)(F)F)c2)C2CCC3(CCCCC3)CC2)cc1 [Example 618, 3-(4-{[(3-Fluoro-5-trifluoromethylbenzoyl)spiro[5.5]undec-3-yl-amino]methyl}benzoylamino)propionic acid]
566	O=C(Nc1nn[nH]n1)c1ccc(CN(C(=O)Cc2ccc(F)cc2F)c2ccc(C3CCCCC3)cc2)cc1 [Example 496, 4-({(4-Cyclohexylphenyl)-[2-(2,4-difluorophenyl)acetyl]amino}methyl)-N-(2H-tetrazol-5-yl)benzamide]
21	O=C(Nc1nn[nH]n1)c1ccc(CN(C(=O)Nc2cccc(C(F)(F)F)c2)c2ccc(C3=CCCCC3)cc2)cc1 [Example 326, 4-[1-(4-Cyclohex-1-enylphenyl)-3-(3-trifluoromethylphenyl)ureidomethyl]-N-(2H-tetrazol-5-yl)benzamide]
660	CC(C)(C)C1CCC(N(Cc2ccc(C(=O)NCCC(=O)O)cc2)C(=O)c2cccc(C(F)(F)F)c2)CC1 (stereo not shown) [Example 527, 3-(4-{[(4-tert-Butylcyclohexyl)-(3-trifluormethylbenzoyl)amino]methyl}benzoylamino)propionic acid]
201	O=C(O)CCNC(=O)c1ccc(CN(CCc2ccc(Cl)c(Cl)c2)C(=O)Nc2ccc(OC(F)(F)F)cc2)cc1 [Example 19, 3-{4-[1-[2-(3,4-Dichlorophenyl)ethyl]-3-(4-trifluoromethoxyphenyl)ureidomethyl]benzoylamino}propionic acid]
88	CC(C)(C)C1CCC(N(Cc2ccc(C(=O)Nc3nn[nH]n3)cc2)C(=O)Cc2ccc(-c3ccccc3)cc2)CC1 (stereo not shown) [Example 547, 4-{[(2-Biphenyl-4-ylacetyl)-(4-tert-butylcyclohexyl)amino]methyl}-N-(2H-tetrazol-5-yl)benzamide]
136	CC(C)(C)C1CCC(N(Cc2ccc(C(=O)Nc3nn[nH]n3)cc2)C(=O)/C=C/c2cccc(Cl)c2)CC1 (stereo not shown) [Example 551, 4-({(4-tert-Butylcyclohexyl)-[3-(3-chlorophenyl)acroloyl]amino}methyl)-N-(2H-tetrazol-5-yl)benzamide]
855	O=C(Nc1nn[nH]n1)c1ccc(CN(CC(c2ccccc2)c2ccccc2)C(=O)c2cc(-c3ccc(Cl)cc3)cs2)cc1 [Example 566, 4-(4-Chlorophenyl)thiophene-2-carboxylic acid (2,2-diphenyl-ethyl)-[4-(2H-tetrazol-5-ylcarbamoyl)benzyl]amide]
119	O=C(Nc1nn[nH]n1)c1ccc(CN(C(=O)Nc2cc(C(F)(F)F)ccc2C(F)(F)F)c2ccc(C3=CCCCC3)cc2)cc1 [Example 361, 4-[3-(2,5-Bis(trifluoromethyl)phenyl)-1-(4-cyclohex-1-enylphenyl)ureidomethyl]-N-(2H-tetrazol-5-yl)benzamide]
589	O=C(Nc1nn[nH]n1)c1ccc(CN(C(=O)Cc2ccc(-c3ccccc3)cc2)c2ccc(C3CCCCC3)cc2)cc1 [Example 497, 4-{[(2-Biphenyl-4-yl-acetyl)-(4-cyclohexylphenyl)amino]methyl}-N-(2H-tetrazol-5-yl)benzamide]
226	CC(C)(C)[C@H]1CC[C@H](N(Cc2ccc(C(=O)Nc3nn[nH]n3)s2)C(=O)Nc2ccc(OC(F)(F)F)cc2)CC1 [Example 578, 5-[1-(trans-4-tert-Butylcyclohexyl)-3-(4-trifluoromethoxyphenyl)ureidomethyl]thiophene-2-carboxylic acid (2H-tetrazol-5-yl)amide]
2910	O=C(O)CCNC(=O)c1ccc(CN(Cc2ccccc2Cl)C(=O)Nc2ccc(OC(F)(F)F)cc2)cc1 [Example 431, 3-{4-[1-(2-Chlorobenzyl)-3-(4-trifluoromethoxyphenyl)ureidomethyl]benzoylamino}propionic acid]
52	CC(C)(C)c1ccc(N(Cc2ccc(C(=O)Nc3nn[nH]n3)cc2)C(=O)Nc2cccc([N+](=O)[O-])c2)cc1 [Example 287, 4-[1-(4-tert-Butylphenyl)-3-(3-nitrophenyl)ureidomethyl]-N-(2H-tetrazol-5-yl)benzamide]
1800	O=C(O)CCNC(=O)c1ccc(CN(Cc2ccc(Cl)c(Cl)c2)C(=O)Nc2ccc(OC(F)(F)F)cc2)cc1 [Example 432, 3-{4-[1-(3,4-Dichlorobenzyl)-3-(4-trifluoromethoxyphenyl)ureidomethyl]benzoylamino}propionic acid]
669	CC(C)(C)C1CCC(N(Cc2ccc(C(=O)NCCC(=O)O)cc2)C(=O)c2ccc(Cc3ccccc3)cc2)CC1 (stereo not shown) [Example 525, 3-(4-{[(4-Benzylbenzoyl)-(4-tert-butylcyclohexyl)amino]methyl}benzoylamino)propionic acid]
55	CC(C)(C)C1CCC(N(Cc2ccc(C(=O)Nc3nn[nH]n3)cc2)C(=O)/C=C/c2ccc(Cl)cc2)CC1 (stereo not shown) [Example 549, 4-({(4-tert-Butylcyclohexyl)-[3-(4-chlorophenyl)acroloyl]amino}methyl)-N-(2H-tetrazol-5-yl)benzamide]

Compound	IC50 [nM]
CC(C)c1ccc(NC(=O)N(Cc2ccc(C(=O)NCCC(=O)O)cc2)C2CCC(C(C)(C)C)CC2)cc1 (stereo not shown) [Example 29, 3-{4-[1-(4-tert-Butylcyclohexyl)-3-(4-isopropylphenyl)ureidomethyl]benzoyl}aminopropionic acid]	149
O=C(O)CCNC(=O)c1ccc(CN(C(=O)Oc2cc(Cl)cc(Cl)c2)c2ccc(C3CCCCC3)cc2)cc1 [Example 400, 3-(4-{[(4-Cyclohexylphenyl)-(3,5-dichlorophenoxycarbonyl)amino]methyl}benzoylamino)propionic acid]	533
CC(C)(C)C1CCC(N(Cc2ccc(C(=O)NCCC(=O)O)cc2)C(=O)Oc2ccc(-c3ccccc3)cc2)CC1 (stereo not shown) [Example 398, 3-(4-{[(Biphenyl-4-yloxycarbonyl)-(4-tert-butylcyclohexyl)amino]methyl}benzoylamino)propionic acid]	135
CCCCOc1ccc(N(Cc2ccc(C(=O)NCCC(=O)O)cc2)C(=O)Nc2ccc(OC(F)(F)F)cc2)cc1 [Example 435, 3-{4-[1-(4-Butoxyphenyl)-3-(4-trifluoromethoxyphenyl)ureidomethyl]benzoylamino}propionic acid]	374
CC(C)(C)C1CCC(N(Cc2ccc(C(=O)NCCC(=O)O)cc2)C(=O)Oc2ccc(OC(F)(F)F)cc2)CC1 (stereo not shown) [Example 405, 3-(4-{[(4-tert-Butylcyclohexyl)-(4-trifluoromethoxyphenoxecarbonyl)amino]methyl}benzoylamino)propionic acid]	224
CC(C)(C)c1ccc(N(Cc2ccc(C(=O)NCCC(=O)O)cc2)C(=O)Oc2ccc(Cl)cc2Cl)cc1 [Example 407, 3-(4-{[(4-tert-Butylphenyl)-(2,4-dichlorophenoxycarbonyl)amino]methyl}benzoylamino)propionic acid]	756

same assay, conditions: Glu Bd Assay (III) IC50 (nM), BHK cell membranes, WGA SPA beads, 125I-glucagon

Compound	IC50 [nM]
CC(C)(C)[C@H]1CC[C@@H](N(Cc2ccc(C(=O)NCCC(=O)O)cc2)C(=O)Nc2ccc(OC(F)(F)F)cc2)CC1 [Example 93, 3-{4-[1-(cis-4-tert-Butylcyclohexyl)-3-(4-trifluoromethoxy-phenyl)ureidomethyl]benzoylamino}propionic acid]	47
